Key:
[1] = system: Streptococcus pneumoniae ATCC 51938; conditions: S. pneumoniae ATCC 51938
[2] = system: Klebsiella pneumoniae (ATCC BAA-1705); conditions: Table 16, Gram-negative panel
[3] = system: Enterococcus faecalis ATCC 51575; conditions: E. faecalis ATCC 51575
[4] = system: Methicillin-resistant Staphylococcus aureus MRSA (ATCC BAA-1556); conditions: MRSA ATCC BAA-1556
[5] = system: Pseudomonas aeruginosa (ATCC 27883); conditions: P. aeruginosa ATCC 27883
E. coli (ATCC BAA-2452) = experiment: Broad-spectrum activity against Gram-Negative bacteria (MIC); type: cell-based; conditions: Table 16, Gram-negative panel
[6] = system: Enterococcus faecium ATCC 27270; conditions: E. faecium ATCC 27270
[7] = system: Enterococcus faecalis ATCC 29212; conditions: E. faecalis ATCC 29212
B. subtilis (ATCC-6633) = experiment: Broad-spectrum activity against Gram-Positive bacteria (MIC); type: cell-based; set-up: unit not given here
[8] = system: A. baumannii (ATCC BAA-1605); experiment: Broad-spectrum activity against Gram-Negative bacteria (MIC); type: cell-based; conditions: Table 16, Gram-negative panel
[9] = system: Escherichia coli (ATCC 25922); conditions: E. coli ATCC 25922
[10] = system: Enterococcus faecium ATCC 700221; conditions: E. faecium ATCC 700221
[11] = system: Klebsiella pneumoniae ATCC 13883; conditions: Table 16, Gram-negative panel
[12] = system: Streptococcus pneumoniae ATCC 49619; conditions: S. pneumoniae ATCC 49619
[13] = system: P. aeruginosa (ATCC 10145); experiment: Broad-spectrum activity against Gram-Negative bacteria (MIC); type: cell-based; conditions: Table 16, Gram-negative panel
S. aureus ATCC 29213 = conditions: S. aureus ATCC 29213
[14] = system: P. aeruginosa (ATCC BAA-1744); experiment: Broad-spectrum activity against Gram-Negative bacteria (MIC); type: cell-based; conditions: Table 16, Gram-negative panel
B. cereus (ATCC-13061) = experiment: Broad-spectrum activity against Gram-Positive bacteria (MIC); type: cell-based; set-up: unit not given here

Row | Substance | Broad-spectrum activity S. pneumoniae (ATCC 51938) [1] | MIC K. pneumonia (ATCC BAA-1705) [2] [µg/mL] | Broad-spectrum activity E. faecalis (ATCC 51575) [3] | MIC MRSA ATCC BAA-1556 [4] [µg/mL] | MIC P. aeruginosa ATCC 27883 [5] [µg/mL] | MIC E. coli (ATCC BAA-2452) (E. coli (ATCC BAA-2452)) [µg/mL] | Broad-spectrum activity E. faecium (ATCC 27270) [6] | Broad-spectrum activity E. faecalis (ATCC 29212) [7] | Broad-spectrum activity B. subtilis (ATCC-6633) (B. subtilis (ATCC-6633)) | MIC A. baumannii (ATCC BAA-1605) [8] [µg/mL] | MIC E. coli ATCC 25922 [9] [µg/mL] | Broad-spectrum activity E. faecium (ATCC 700221) [10] | MIC K. pneumonia (ATCC 13883) [11] [µg/mL] | Broad-spectrum activity S. pneumoniae (ATCC 49619) [12] | MIC P. aeruginosa (ATCC 10145) [13] [µg/mL] | MIC S. aureus ATCC 29213 (S. aureus ATCC 29213) [µg/mL] | MIC P. aeruginosa (ATCC BAA-1744) [14] [µg/mL] | Broad-spectrum activity B. cereus (ATCC-13061) (B. cereus (ATCC-13061))
1 | c[Arg-Arg-Arg-Arg-dip-Trp-dip] [IFX-098] | 25 | 25 | 12.5 | 1.5 | 12.5 | 25 | 3.1 | 6.2 | 1.5 | 12.5 | 12.5 | 6.2 | 50 | 50 | 25 | 3.1 | 25 | 3.1
2 | c[Arg-Arg-Arg-Arg-dip-Trp-Dip] [IFX-090] | 12.5 | 25 | 12.5 | 3.1 | 12.5 | 12.5 | 3.1 | 6.2 | 1.5 | 12.5 | 12.5 | 6.2 | 50 | 25 | 25 | 3.1 | 25 | 6.2
3 | c[arg-arg-Arg-Arg-NaI-trp-NaI] [IFX-140] | 12.5 | > 50 | 6.2 | 3.1 | 32 | 25 | 3.1 | 6.2 | 1.5 | 12.5 | 32 | 6.2 | 50 | 25 | 25 | 3.1 | 25 | 3.1
4 | c[arg-Arg-arg-Arg-dip-Trp-dip] [IFX-096] | 25 | 25 | 12.5 | 3.1 | 6.2 | 12.5 | 3.1 | 12.5 | 3.1 | 25 | 6.2 | 6.2 | 50 | 25 | 50 | 3.1 | 50 | 6.2
5 | c[Arg-arg-Arg-arg-dip-Trp-dip] [IFX-097] | 25 | 25 | 12.5 | 3.1 | 12.5 | 25 | 3.1 | 6.2 | 1.5 | 12.5 | 12.5 | 6.2 | > 50 | 50 | 50 | 3.1 | 50 | 6.2
6 | c[Arg-Arg-arg-arg-naI-trp-naI] [IFX-137] | 12.5 | 50 | 6.2 | 3.1 | 32 | 25 | 3.1 | 6.2 | 1.5 | 12.5 | 16 | 3.1 | 50 | 25 | 25 | 3.1 | 25 | 3.1
7 | c[arg-arg-arg-arg-NaI-trp-NaI] [IFX-141] | 12.5 | > 50 | 12.5 | 6.2 | 32 | 25 | 6.2 | 6.2 | 1.5 | 12.5 | 32 | 6.2 | 50 | 50 | 25 | 3.1 | 25 | 3.1
8 | c[Arg-Arg-Arg-Arg-Dip-dip-Dip] [IFX-061] | 12.5 | 25 | 12.5 | 1.5 | 12.5 | 12.5 | 3.1 | 6.2 | 1.5 | 6.2 | 12.5 | 3.1 | 50 | 50 | 25 | 3.1 | 12.5 | 3.1
9 | c[Arg-Arg-Arg-Arg-naI-trp-naI] [IFX-143] | 12.5 | 25 | 12.5 | 3.1 | 64 | 25 | 3.1 | 6.2 | 3.1 | 12.5 | 16 | 3.1 | > 50 | 50 | 50 | 1.5 | 25 | 6.2
10 | c[Arg-Arg-arg-Arg-Dip-Dip-Dip] [IFX-064] | 25 | 12.5 | 12.5 | 3.1 | 12.5 | 6.2 | 3.1 | 6.2 | 1.5 | 6.2 | 12.5 | 1.5 | 50 | 50 | 25 | 3.1 | 25 | 3.1
